The test concerns PAH-minipig. In words: PAH-minipig model, inhaled application on top of PAH standard-of-care. It is filed as in vivo. The note with it: bosentan, sildenafil, Ilomedin, riociguat.

Regarding `O=C(O)c1ccc(CCN(CCc2ccccc2OCc2ccc(-c3ccc(C(F)(F)F)cc3)cc2Cl)[C@H]2CCCc3nc(C(=O)O)ccc32)cc1` [Comparative example 11, (5S)-5-{[2-(4-carboxyphenyl)ethyl][2-(2-{[3-chloro-4′-(trifluoromethyl)[biphenyl]-4-yl]methoxy}phenyl)ethyl]amino}-5,6,7,8-tetrahydroquinoline-2-carboxylic Acid], the “effect on PAP on top of PAH standard-of-care” value was “selectively decreased elevated PAP”.

The record behind these values is patent US20250281480A1, “PHARMACEUTICAL DRY POWDER INHALATION FORMULATION” (Bayer Aktiengesellschaft, priority 2021, published 2025).
